# In BindingDB's records for doi:10.1016/s0960-894x(99)00095-5 (Warner-Lambert, 1999):
# Biological target: Trypsin (Bos taurus)
# Assay: In vitro for inhibition of purified bovine trypsin.
row,SMILES,IC50
1,"CN(c1nc2ccccc2c(=O)o1)S(=O)(=O)c1ccc(Cl)c(Cl)c1 [3,4-Dichloro-N-methyl-N-(4-oxo-4H-benzo[d][1,3]oxazin-2-yl)-benzenesulfonamide]",8.3 µM
2,"COc1ccc(S(=O)(=O)N(C)c2nc3ccccc3c(=O)s2)cc1 [4-Methoxy-N-methyl-N-(4-oxo-4H-benzo[d][1,3]thiazin-2-yl)-benzenesulfonamide]",> 200 µM
3,"CN(c1nc2ccccc2c(=O)o1)S(=O)(=O)c1ccc(C(C)(C)C)cc1 [4-tert-Butyl-N-methyl-N-(4-oxo-4H-benzo[d][1,3]oxazin-2-yl)-benzenesulfonamide]",5.83 µM
4,"CN(c1nc2ccccc2c(=O)o1)S(=O)(=O)c1ccc([N+](=O)[O-])cc1 [N-Methyl-4-nitro-N-(4-oxo-4H-benzo[d][1,3]oxazin-2-yl)-benzenesulfonamide]",> 100 µM

# Now from value to molecule:
row,IC50,SMILES
1,4.5 µM,"Cc1ccc(S(=O)(=O)N(C)c2nc3ccccc3c(=O)o2)cc1 [4,N-Dimethyl-N-(4-oxo-4H-benzo[d][1,3]oxazin-2-yl)-benzenesulfonamide]"
2,1.3 µM,"CN(c1nc2ccccc2c(=O)o1)S(=O)(=O)c1ccc(Cl)cc1 [4-Chloro-N-methyl-N-(4-oxo-4H-benzo[d][1,3]oxazin-2-yl)-benzenesulfonamide]"
